Non-standard residues stand in square brackets, D forms with d. Residues, ends and D or L forms follow the SMILES beside them. *: point of attachment. Benzoyl(4-benzoyl) = O=C(c1ccccc1)c1ccc(C(=O)*)cc1; Bpa = N[C@@H](Cc1ccc(C(=O)c2ccccc2)cc1)C(=O)O
Columns and labels:
rCRFBP = molecular target: T1, rCRFBP (Rattus norvegicus, UniProt P24388); assay: Scintillation proximity assay with [125I-Tyr0]h/rCRF as radioligand, binding to rCRFBP
T1 construct: made in house; host or cells: HEK 293 cells, stably transfected (pcDNA3); serum-free conditioned medium used directly
T1 sequence (P24388 25-322): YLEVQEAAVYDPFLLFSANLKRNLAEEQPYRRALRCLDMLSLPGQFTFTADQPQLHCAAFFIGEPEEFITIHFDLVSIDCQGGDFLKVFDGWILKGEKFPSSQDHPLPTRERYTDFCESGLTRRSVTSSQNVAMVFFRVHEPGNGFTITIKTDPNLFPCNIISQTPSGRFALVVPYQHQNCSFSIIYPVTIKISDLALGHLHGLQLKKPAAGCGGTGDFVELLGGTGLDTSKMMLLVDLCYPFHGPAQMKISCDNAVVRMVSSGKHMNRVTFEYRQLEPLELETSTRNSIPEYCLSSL
From the text: Recombinant rCRFBP containing a C-terminal His-tag was produced in human embryonic kidney (HEK) 293 cells under serum-free conditions (45).

CRFBP = molecular target: T2, CRFBP (Rattus norvegicus, UniProt P24388); settings: relative to Svg; cited from earlier work
T2 sequence (P24388 25-322): T1 sequence (P24388 25-322)

| Compound | IC50 (rCRFBP; Example 8, 95% CI given alongside, read-out: IC50 (affinity to rCRFBP)) | Decrease of affinity compared to h/rCRF^6-33 (rCRFBP; bifunctional photoprobe) | Increase of affinity to CRFBP by replacement of Glu^21 in Svg by Ala (CRFBP) |
| --- | --- | --- | --- |
| CC[C@H](C)[C@H](NC(=O)c1ccc(C(=O)c2ccccc2)cc1)C(=O)N[C@@H](CO)C(=O)N[C@@H](CC(C)C)C(=O)N[C@@H](CC(=O)O)C(=O)N[C@@H](CC(C)C)C(=O)N[C@H](C(=O)N[C@@H](Cc1ccccc1)C(=O)N[C@@H](Cc1c[nH]cn1)C(=O)N[C@@H](CC(C)C)C(=O)N[C@@H](CC(C)C)C(=O)N[C@@H](CCCNC(=N)N)C(=O)N[C@@H](CCC(=O)O)C(=O)N[C@H](C(=O)N[C@@H](CC(C)C)C(=O)N[C@@H](CCC(=O)O)C(=O)N[C@@H](CCSC)C(=O)N[C@@H](C)C(=O)N[C@@H](CCCNC(=N)N)C(=O)N[C@@H](C)C(=O)N[C@@H](CCC(=O)O)C(=O)N[C@@H](CCC(N)=O)C(=O)N[C@@H](CC(C)C)C(=O)N[C@@H](C)C(=O)N[C@@H](CCC(N)=O)C(=O)N[C@@H](CCC(N)=O)C(=O)N[C@@H](C)C(=O)N[C@@H](Cc1ccc(C(=O)c2ccccc2)cc1)C(=O)N[C@@H](CO)C(=O)O)C(C)C)[C@@H](C)O [Compound 15, [pBPhe^32] pBB-h/rCRF^6-33] ({Benzoyl(4-benzoyl)}-ISLDLTFHLLREVLEMARAEQLAQQA[Bpa]S-OH) | 14 nM | decreased by a factor of seven |  |
| [Ala^21]Svg |  |  | two orders of magnitude |

From patent US20040260071A1, “Benzophene-linked crf and crf-like peptides for covalent labeling of corticotropin-releasing factor crf binding protein” (priority 2001, published 2004)
